The subject of experiment [1] is EC-100 (thiC 1-100 nascent transcript) (RNA, riboswitch) UAAUUUCUUGUCGGAGUGCCUUAACUGGCUGAGACCGUUUAUUCGGGAUCCGCGGAACCUGAUCAGGCUAAUACCUGCGAAGGGAACAAGAGUUAAUCUG
Put plainly: RNase H cleavage of stalled elongation complex, P1 probe. The conditions noted are these: 20 mM MgCl2, 20 mM NaCl (transcription); 20 mM MgCl2, 100 mM KCl (RNase H step); Tris-HCl pH 8.0, 37 °C; 10 μM TPP; cleavage ratio 1.3; RNAP bound.

Experiment [2] has as its system EC-108 (thiC 1-108 nascent transcript) (RNA, riboswitch) UAAUUUCUUGUCGGAGUGCCUUAACUGGCUGAGACCGUUUAUUCGGGAUCCGCGGAACCUGAUCAGGCUAAUACCUGCGAAGGGAACAAGAGUUAAUCUGCUAUCGCA
The description is as above. Particulars: 20 mM MgCl2, 20 mM NaCl (transcription); 20 mM MgCl2, 100 mM KCl (RNase H step); Tris-HCl pH 8.0, 37 °C; 10 μM TPP; cleavage ratio 6.7; RNAP bound.

The test system of experiment [3] is EC-207 (thiC 1-207 nascent transcript) (RNA, riboswitch) UAAUUUCUUGUCGGAGUGCCUUAACUGGCUGAGACCGUUUAUUCGGGAUCCGCGGAACCUGAUCAGGCUAAUACCUGCGAAGGGAACAAGAGUUAAUCUGCUAUCGCAUCGCCCCUGCGGCGAUCGUCUCUUGCUUCAUCCGUCGUCUGACAAGCCACGUCCUUAACUUUUUGGAAUGAGCUAUGUCUGCAACAAAACUGACCCGCC
Described as above. The conditions noted are these: 20 mM MgCl2, 20 mM NaCl (transcription); 20 mM MgCl2, 100 mM KCl (RNase H step); Tris-HCl pH 8.0, 37 °C; 10 μM TPP; RNAP bound; sensing partially recovered.

In experiment [4] the test system is EC-197 (thiC 1-197 nascent transcript) (RNA, riboswitch) UAAUUUCUUGUCGGAGUGCCUUAACUGGCUGAGACCGUUUAUUCGGGAUCCGCGGAACCUGAUCAGGCUAAUACCUGCGAAGGGAACAAGAGUUAAUCUGCUAUCGCAUCGCCCCUGCGGCGAUCGUCUCUUGCUUCAUCCGUCGUCUGACAAGCCACGUCCUUAACUUUUUGGAAUGAGCUAUGUCUGCAACAAAA
The experiment is described as above. Particulars: 20 mM MgCl2, 20 mM NaCl (transcription); 20 mM MgCl2, 100 mM KCl (RNase H step); Tris-HCl pH 8.0, 37 °C; 10 μM TPP; RNAP bound; sensing partially recovered.

Experiment [5] relates to 143 nt thiC transcript (without RNAP) (RNA, riboswitch) UAAUUUCUUGUCGGAGUGCCUUAACUGGCUGAGACCGUUUAUUCGGGAUCCGCGGAACCUGAUCAGGCUAAUACCUGCGAAGGGAACAAGAGUUAAUCUGCUAUCGCAUCGCCCCUGCGGCGAUCGUCUCUUGCUUCAUCCGU
Put plainly: RNase H cleavage of free transcript. The conditions noted are these: 20 mM MgCl2, 20 mM NaCl (transcription); 20 mM MgCl2, 100 mM KCl (RNase H step); Tris-HCl pH 8.0, 37 °C; 10 μM TPP; cleavage ratio higher than 158 nt transcript.

Experiment [6] deals with 158 nt thiC transcript (without RNAP) (RNA, riboswitch) UAAUUUCUUGUCGGAGUGCCUUAACUGGCUGAGACCGUUUAUUCGGGAUCCGCGGAACCUGAUCAGGCUAAUACCUGCGAAGGGAACAAGAGUUAAUCUGCUAUCGCAUCGCCCCUGCGGCGAUCGUCUCUUGCUUCAUCCGUCGUCUGACAAGCCAC
The experiment in a line: RNase H cleavage of free transcript. Particulars: 20 mM MgCl2, 20 mM NaCl (transcription); 20 mM MgCl2, 100 mM KCl (RNase H step); Tris-HCl pH 8.0, 37 °C; 10 μM TPP; cleavage ratio 3.4; less efficient than EC-158.

In PMC5234074 (2017) one finds binding data, which are given here for 1 molecule.

Regarding `Cc1ncc(C[n+]2csc(CCOP(=O)(O)OP(=O)(O)O)c2C)c(N)n1`, the binding result in experiment [1] was “weak”; in experiment [2], “yes”; in experiment [3], “yes”; in experiment [4], “yes”; in experiment [5], “yes”; in experiment [6], “yes”.
